{"source": "patent US8653117B2", "about": "“Composition comprising at least one oxazoline to inhibit migration of langerhans cells, and uses thereof” (Laboratoires Expanscience, priority 2001, dated 2014)", "key": {"[1]": {"tested_on": "Langerhans cells (LC) and dendritic cells (DC) in mice", "test": "Migration of dendritic cells from ear skin to draining ganglions in mice sensitized by FITC hapten", "type": "in vivo", "conditions": "for Migration inhibition in %: FITC hapten; for migration of DCs to LGs (in words): OX100 alone, mice sensitized by FITC hapten", "from_the_text": "FITC (Fluoresceine isothiocyanate, Sigma, St Louis, Mo.) was extemporaneously diluted in an acetone mix (dibutylphthalate (1:1)).\nOxazoline OX100 and LU105 (LU 105 is an MMP inhibitor, corresponding to a peptide extract of white lupin marketed by the Expanscience Company under the brand name Actimp 193®) were supplied by “Laboratoires Expanscience” and formulated alone or association with each other in an inert vehicle compatible with a topical application (oxazoline OX100 (0.1%) LU105 (2%)). The different formulations were applied on the ears of mice twice per day for 4 consecutive days. 1.5% of FITC was applied on both ears (one treated and the other not treated (Control)) three hours after the last application.\nThe effect of the two molecules was evaluated in vivo in mice. 1.5% FITC (2×5 μl) was applied on the skin of both ears. 24 h later, the mice were sacrificed and a cellular suspension was prepared from auricular and cervical ganglions (draining ganglions, hereinafter denoted GL) or from the poplital ganglions (non-draining ganglions, negative control). The tissues were cut and cells separated by filtration (100 μm filter, Falcon; Becton Dickinson) and then washed. The cells were then centrifuged for 10 minutes at 600×g (m×s^−2) on a metrizamide gradient (14.5% in RPMI 1640; 7.5% SVF). The interface cells were retrieved, rinsed and then marked with an anti-CDS86 PE-conjugated, biot-MHC CLII mAbs AC plus streptavidine-Cya (PharMingen) and analyzed by flux cytometry. Only the FITC^+, PE^+ and Cya^+ cells are counted since they represent the population of cells that migrated from the skin to GLs following the application of hapten.\nFITC (Fluoresceine isothiocyanate, Sigma, St. Louis, Mo.) was diluted extemporaneously in a mixture of acetone and dibutylphthalate (1:1).\nOxazoline OX100 and AK100 (described above) were supplied by “Laboratoires Expanscience” and formulated alone or in association in an inert vehicle compatible with a topical application [OX100 (0.05%) AK100 (0.05%)]. The different formulations were applied on the ears of mice twice per day for 4 consecutive days. Three hours after the last application, 1.5% of FITC was applied on both ears (one treated and the other not treated (Control))."}, "[2]": {"tested_on": "Langerhans cells freshly isolated from human skin", "test": "Migration of Langerhans cells freshly isolated from human skin, sensitized by DNSB, two-compartment Matrigel chamber", "type": "cell-based", "method": "Epidermal cell suspensions were obtained by enzymatic treatment (0.05% trypsine for 18 h at +4° C.) of fragments of normal human skin taken from plastic surgery. The suspensions obtained contain an average of 2 to 4% of LC. Obtaining suspensions containing an average of 70% of LC is based on the principle of centrifuging on density gradient (Lymphoprep™) and elimination of keratinocytes.\nThe basic medium chosen for the entire study was PRMI 1640 (Gibco BRL, France). The OX100 molecule supplied by Pharmascience, with a concentration of 10^−2 M in solution in DMSO (Dimethyl Sulfoxide) was diluted in RPMI-1640 and tested at 1 μM.\nThe sensitizing agent was DNSB (Sigma Aldrich), a soluble form of DNCB (dinitro-chloro-benzene) solubilized in RPMI-BSA and used at a concentration of 50 μM.\nA culture chamber system with two compartments (Falcon, Becton Dickinson, France) was used. The upper compartment is separated from the lower compartment by a membrane with 8 μm porosity, on which 50 μg/cm^2 Matrigel was deposited. […] After 18 h incubation at 37° C., the number of living cells that passed through the Matrigel and that are located in the lower compartment is counted under a microscope (the LCs are easily identifiable by their dendritic form). […]"}, "[3]": {"tested_on": "dendritic cells generated in vitro from CD34+ precursors derived from blood from the umbilical cord", "test": "Migration of dendritic cells generated in vitro from CD34+ precursors of umbilical cord blood, activated by hapten BB", "type": "cell-based", "conditions": "for inhibition at 1 µM: Dendritic cell, hapten BB; for Percentage of dendritic cells generated in vitro that migrated: BB + OX100 (1 μM)", "method": "Mononucleated cells were obtained from blood from the umbilical cord of healthy donors by centrifuging on Ficoll. The CD34+ cells were then purified by immunoselection using a specific antibody and magnetic balls (Miltenyi Biotech, Germany). The CD34+ cells were cultivated in the presence of GM-CSF (100 ng/ml), TNF-α (2.5 ng/ml) in RPMI to which 10% calf fetus serum was added for 5 days. TGF-β1, a factor that encourages differentiation of cells to the Langerhans cells […], was added on the 5th day of culture.\nPreparation of Media (Ditto Example 2).\nCells were treated by hapten BB on the 7th day (Brandowski base, 1.17 μg/ml) for 24 h, and were then subjected to the migration test.\nMigration of LCs (Ditto Example 2)."}}}
{"smiles": "CCCCCCCCCCCC(=O)NC(C)(C)CO", "note": "[AK100]", "values": [{"measurement": "Migration inhibition in %", "setting": "[1]; Example 5, AK100 0.05% topical on ears twice per day for 4 days", "value": 15, "unit": "%"}]}
{"smiles": "CCCCCCCCCCCC1=NC(C)(C)CO1", "note": "[OX100, 2-undecyl-4,4-dimethyl-1,3-oxazoline]", "values": [{"measurement": "migration of LCs induced by DNSB (in words)", "setting": "[2]; 1 μM", "value": "significantly inhibits"}, {"measurement": "LC migration index", "setting": "[2]; DNSB + OX100 (1 μM), 18 h, control cells set to 1, DNSB alone 2.55", "value": 0.98}, {"measurement": "Migration inhibition in %", "setting": "[1]; Example 4, OX100 0.1% topical on ears twice per day for 4 days", "value": 30, "unit": "%"}, {"measurement": "migration of DCs to LGs (in words)", "setting": "[1]; Example 4", "value": "significantly inhibits"}, {"measurement": "Migration inhibition in %", "setting": "[1]; Example 5, OX100 0.05% topical on ears twice per day for 4 days", "value": 15, "unit": "%"}, {"measurement": "migration of DCs to LGs (in words)", "setting": "[1]; Example 5", "value": "significantly inhibits"}, {"measurement": "migration of dendritic cells generated in vitro and activated by hapten BB (in words)", "setting": "[3]; 1 μM", "value": "significantly inhibits"}, {"measurement": "inhibition at 1 µM", "setting": "[3]; experiment 1, 1 μM", "value": 29, "unit": "%"}, {"measurement": "inhibition at 1 µM", "setting": "[3]; experiment 2, 1 μM", "value": 15, "unit": "%"}, {"measurement": "Percentage of dendritic cells generated in vitro that migrated", "setting": "[3]; Experiment 1, BB alone 17", "value": 12, "unit": "%"}, {"measurement": "Percentage of dendritic cells generated in vitro that migrated", "setting": "[3]; Experiment 2, BB alone 24", "value": 20.3, "unit": "%"}]}
